Laboratory results reported in article doi:10.1101/2020.09.17.301234v1, “Molecular and functional characterization of buffalo nasal epithelial odorant binding proteins and their structural insights by in-silico and biochemical approach” (biorxiv, 2020).

What was measured:
Assay type in all cases: binding, Bubalus bubalis
[1] = target: T1, OBP1a (bnOBP isoform 1a; also printed 1OBPa); assay: competitive 1-NPN displacement fluorescence; conditions: 2 µM protein, 2 µM 1-NPN, 50 mM Tris-HCl, 300 mM NaCl, pH 8.0; competitive with 1-NPN
T1 construct: gene OBP
Source text: competitive 1-NPN displacement fluorescence on OBP1a (bnOBP isoform 1a; also printed 1OBPa)

[2] = target: T1, OBP1a (bnOBP isoform 1a; also printed 1OBPa); assay: competitive 1-NPN displacement fluorescence; conditions: 2 µM protein, 2 µM 1-NPN, 50 mM Tris-HCl, 300 mM NaCl, pH 8.0; competitive with 1-NPN; remark: listed apart in the source
[3] = target: T1, OBP1a (bnOBP isoform 1a; also printed 1OBPa); assay: fluorescence titration; conditions: 50 mM Tris-HCl, 300 mM NaCl, pH 8.0; 2 µM protein; fluorescent probe; read-out: dissociation constant

Ki [1] [µM] | Ki [2] [µM] | Structure (SMILES) | Kd [3] [µM]
266 | 3.5 | Cc1ccc(O)cc1 [p-cresol] | –
– | 4.2 | CCCCCCCC/C=C\CCCCCCCC(=O)O [oleic acid] | –
– | – | c1ccc(Nc2cccc3ccccc23)cc1 [N-phenyl-1-naphthylamine] | 0.7
